Data published in patent publication US20150111896A1, “HEMATOPOIETIC PROTECTION AGAINST CHEMOTHERAPEUTIC COMPOUNDS USING SELECTIVE CYCLIN-DEPENDENT KINASE 4/6 INHIBITORS” (The University of North Carolina at Chapel Hill, priority 2008, published 2015).
Entries after “also recorded” stand apart in the source; their conditions may differ. Like-named read-outs stand apart in the source and are kept apart here.

Legend:
[1] = test system: telomerized human diploid fibroblast (tHDF) cells (HS68); experiment: γH2AX assay (DNA damage, flow cytometry); format: cell-based; settings: 16 hours pretreatment, then 8 hours Carbo, Etop or Dox
From the text: (§1) Reduction in DNA damage effected by the test compound or maintenance of cell viability effected by the test compound in cells treated with cytotoxic compounds can be assessed in any suitable manner. For example, DNA damage in cell populations can be assessed by performing a gamma-H2AX assay as described further herein below. Mammalian cells respond to agents that introduce DNA double-stranded breaks with the immediate and substantial phosphorylation of histone H2AX. Thus, detection of the phosphorylated H2AX, termed gamma-H2AX (γH2AX), using commercially available antibodies, can serve as a measure of DNA damage in cells.
(§2) Cells were cultured in DMEM+10% FBS.
(§3) γH2AX assay: For γH2AX assay, cells were treated with a dose response of PD332991 or 2BrIC for 24 hours. Cells were fixed, permeabilized, and stained with anti-γH2AX antibody as per γH2AX Flow Kit (Millipore, Billerica, Mass., United States of America). γH2AX levels were assessed by flow cytometry.

[2] = test system: human melanoma cells lacking INK4a/ARF (WM2664); experiment: γH2AX assay (DNA damage, flow cytometry); format: cell-based; settings: 16 hours pretreatment; for protection from doxorubicin-, carboplatin- or etoposide-induced DNA damage (gamma-H2AX): then 8 hours Carbo, Etop or Dox
From the text: as §1, §2, §3

[3] = test system: telomerized human diploid fibroblast (tHDF) cells (HS68); experiment: Cell cycle analysis (BrdU and propidium iodide, flow cytometry); format: cell-based; settings: HS68 (CDK4/6-dependent), 24 hours treatment
Method: as §2
(§4) Cell cycle analysis: Cell cycle analysis was performed using BrdU and propidium iodide (both from BD Biosciences Pharmigen, San Jose, Calif., United States of America) following the manufacturer's protocol. Cells were treated for 24 hours with a test compound at a desired dose prior to 15 minutes BrdU pulse, cell harvesting, fixation, staining, and analysis by flow cytometry.
(§5) Histograms of dose-response curves of PD332991 and 2BrIC in HS68, WM2664 and A2058 cells were analyzed using Mod-Fit™ software from Verity Software House (Topsham, Me., United States of America).

[4] = test system: human melanoma cells lacking INK4a/ARF (WM2664); experiment: TOXILIGHT assay (adenylate kinase release); format: cell-based; settings: 16 hours treatment, then Carbo 50 μM, DOX 122 nM or Etop 2.5 μM 8 hours
Method: (§6) Cellular cytotoxicity was assessed using the TOXILIGHT™ Bioassay kit (Lonza, Basel, Switzerland) which measures cytolysis by quantifying the release of adenylate kinase into the culture media. […] 100 μL of TOXILIGHT™ reagent is added and incubated for 5 minutes and read in a luminometer at 1 second/well.

[5] = test system: RB-null human melanoma cells (A2058); experiment: TOXILIGHT assay (adenylate kinase release); format: cell-based; settings: 16 hours treatment, then Carbo 50 μM, DOX 122 nM or Etop 2.5 μM 8 hours
Method: as §6

[6] = test system: HS68 cells; experiment: TOXILIGHT assay (adenylate kinase release); format: cell-based, human; settings: pretreatment, then Carbo 50 μM, DOX 122 nM or Etop 2.5 μM 8 hours
Method: as §6

[7] = test system: telomerized human diploid fibroblast (tHDF) cells (HS68); experiment: Cell proliferation assay (WST-1 or CellTiter-Glo) after chemotherapeutic; settings: for chemoprotective effects against doxorubicin, carboplatin, etoposide (cell viability, CellTiter-Glo): 16 hour pretreatment, DOX 122 nM, Carbo 50 μM or Etop 2.5 μM 8 hours
Method: (§7) In some embodiments, cell viability is assessed by performing a assay using 2-(4-iodophenyl)-3-(4-nitrophenyl)-5-(2,4-disulfophenyl)-2H-tetrazolium monosodium salt (WST-1), such as described further hereinbelow. In the WST-1 assay, WST-1 is cleaved by a mitochondrial reductase present in viable cells to form a colored product (i.e., formazan) that can be detected by measuring absorbance at a particular wavelength (e.g., 420-480 nm). […] The CellTiter-Glo® assay (CTG assay; Promega, Madison, Wis., United States of America) measures cell viability by measuring ATP concentration in cell lysate.
(§8) Cell lines: Telomerized human diploid fibroblast (tHDF) cells (HS68) were cultured in Dulbecco's Modified Eagle Medium (DMEM) +10% fetal bovine serum (FBS) with any additional compounds. The same conditions were used for A2058 and WM2664, human melanoma cell lines with known RB-pathway mutations: A2058 is RB-null, whereas WM2664 lacks INK4a/ARF. Thus, A2058 cells are CDK4/6-independent, while WM2664 cells are CDK4/6-dependent. Cells were cultured in DMEM+10% FBS.
(§9) Cell proliferation assays: Cell proliferation assays were performed by seeding 1×10^3 cells per well in a 96-well tissue culture plate in 100 μL of growth medium. Cells were treated as indicated with compound from Table 1 and doxorubicin, etoposide or carboplatin. Following treatment, cells were allowed to recover for 7 days in normal growth medium. At the end of the recovery period, cell number was quantified using the VVST-1 cell proliferation assay (TaKaRa Bio USA, Madison, Wis., United States of America) or the CellTiter-Glo® assay (CTG; Promega, Madison, Wis., United States of America). Data is presented as absorbance at 450 nm for the WST assays or Relative Light Units (RLU) for the CTG assays.

[8] = test system: hematopoietic stem and progenitor cells (HSPC); experiment: In vivo pharmacodynamic assay (BrdU incorporation, Ki67) in bone marrow; parameters: species or system mice; settings: two doses 300 mg/kg oral gavage, 2 hours prior to and at BrdU injection; relative to formulation alone; 300 mg/kg
Method: PD0332991: For HSPC proliferation experiments, mice received daily oral gavage with PD0332991 150 mg/kg for 2 days with 1 mg BrdU intraperitoneal injection (i.p.) every 6 hours for 24 hours prior to sacrifice.
2BrIC: For HSPC proliferation experiments, mice were treated with two doses of 2-bromo-12,13-dihydro-5H-indolo[2,3-a]pyrrolo[3,4-c]carbazole-5,7(6H)-dione (2BrIC) 300 mg/kg oral gavage or vehicle control. 2BrIC was solubilized for oral gavage using formulation #6 from the Hot Rod formulation kit (Pharmatek, Inc., San Diego, Calif., United States of America). 2BrIC was administered 2 hours prior to BrdU administration and readministered at the time of the BrdU 1 mg i.p. injection. After BrdU+/−2BrIC treatment for the indicated times, the mice were sacrificed and bone marrow harvested for immunophenotyping, and BrdU analysis.
Bone marrow (BM) was harvested from femurs of mice, pooled, and centrifuged to purify bone marrow mononuclear cells (BM-MNCs). Cells were then incubated for 5 minutes in ACK buffer to lyse red blood cells. All antibodies were from BD Pharmingen (San Jose, Calif., United States of America) unless otherwise indicated. Purified BM-MNCs were incubated with mouse lineage mixture biotin conjugated antibody, followed by streptavidin-FITC. Cells were then stained with Sca-1-PE-Cy7 and c-kit-APC-alexa750 antibodies. Cell viability was assessed using LIVE/DEAD Aqua Dead Cell Stain Kit (Invitrogen Corporation, Carlsbad, Calif., United States of America). For BrdU incorporation assay, the cells were fixed, permeablized, and stained with an APC BrdU Flow Kit according to the manufacturer's instruction. In all experiments, PE-Cy7, FITC, APC-alexa750, and the Aqua Dead cell stain isotype controls were included as appropriate. Flow cytometric analysis was performed using a CyAn ADP (Dako, Glostrup, Denmark). For each sample, a minimum of 500,000 cells was analyzed and the data were analyzed using FlowJo software (Tree Star, Ashland, Oreg., United States of America).

[9] = test system: human RB-null melanoma cells (A2058); experiment: γH2AX assay (DNA damage, flow cytometry); format: cell-based; settings: 16 hours pretreatment, then 8 hours Carbo, Etop or Dox
From the text: as §1, §2, §3

[10] = test system: human RB-null melanoma cells (A2058); experiment: Cell proliferation assay (WST-1 or CellTiter-Glo) after chemotherapeutic; settings: for protection from chemotherapy-induced cytotoxicity (cell proliferation assays): A2058 (CDK4/6-independent), pretreatment prior to carboplatin, etoposide or doxorubicin
Method: as §7, §8, §9

[11] = test system: mice exposed to chemotherapeutic agents; experiment: Myelosuppression assay: weekly complete blood counts; format: in vivo; settings: 150 mg/kg oral gavage, Carbo 100 mg/kg i.p., blood on sixth day
Method: PD0332991: In the carboplatin experiments, mice were treated with a single dose of PD0332991 150 mg/kg oral gavage or vehicle control followed by carboplatin 100 mg/kg IP injection. In the doxorubicin experiments, mice were treated with a PD0332991 150 mg/kg by oral gavage or vehicle control one hour before doxorubicin 10 mg/kg by IP injection on day 0 and then repeated on day 7.
2BrIC: Mice were treated with a single dose of carboplatin 100 mg/kg by IP injection and two doses of 2BrIC 150mg/kg oral gavage or vehicle control. Mice were pretreated with 2BrIC two hours prior to carboplatin administration and then readministered a second dose of 2BrIC at the time of the carboplatin injection.
Baseline complete blood count (CBC) analysis were performed on a subset of mice prior to drug administration. Following drug administration (chemotherapy+/−indicated CDK4/6 inhibitor or control), mice were monitored weekly for the presence of myelosuppression by CBC analysis. CBC analysis was performed using BD Microtainer tubes with K2E (K2EDTA), 40 μL of blood was collected by tail vein nick. Blood was analyzed using a HESKA CBC-Diff Veterinary Hematology System. CBC analysis included measurement of white blood cells, lymphocytes, granulocytes, monocytes, hematocrit, red blood cells, hemoglobin, platelets, and other common hematological parameters.

[12] = test system: human melanoma cells lacking INK4a/ARF (WM2664); experiment: Cell cycle analysis (BrdU and propidium iodide, flow cytometry); format: cell-based; settings: WM2664 (CDK4/6-dependent), 24 hours treatment
Method: as §2, §4, §5

[13] = test system: human melanoma cells lacking INK4a/ARF (WM2664); experiment: Cell proliferation assay (WST-1 or CellTiter-Glo) after chemotherapeutic; settings: for protection from chemotherapy-induced cytotoxicity (cell proliferation assays): WM2664 (CDK4/6-dependent), pretreatment prior to carboplatin, etoposide or doxorubicin
Method: as §7, §8, §9

[14] = test system: human RB-null melanoma cells (A2058); experiment: Cell cycle analysis (BrdU and propidium iodide, flow cytometry); format: cell-based; settings: A2058 (RB-null, CDK4/6-independent), 24 hours treatment
Method: as §2, §4, §5

[15] = test system: telomerized human diploid fibroblast (tHDF) cells (HS68)
Method: as §7, §8, §9

CN[C@@H]1C[C@H]2O[C@@](C)([C@@H]1OC)n1c3ccccc3c3c4c(c5c6ccccc6n2c5c31)C(=O)NC4 [staurosporine]
protection from doxorubicin-, carboplatin- or etoposide-induced DNA damage (gamma-H2AX) [1]: does not protect | protection from doxorubicin-, carboplatin- or etoposide-induced DNA damage (gamma-H2AX) ([1]; listed as Staurosporine): does not appear to protect | protection from doxorubicin-, carboplatin- or etoposide-induced DNA damage (gamma-H2AX) [2]: does not protect | protection from doxorubicin-, carboplatin- or etoposide-induced DNA damage (gamma-H2AX) ([2]; listed as Staurosporine): does not appear to protect | cell cycle effect [3]: substantially pure G1 arrest | cell cycle effect ([3]; listed as Staurosporine): appears to induce G1 cell cycle arrest | effect on chemotherapy-induced cytotoxicity (adenylate kinase release) [4]: enhances chemotherapy-induced cytotoxicity in a cyclin-dependent kinase 4/6 (CDK4/6)-independent manner | effect on chemotherapy-induced cytotoxicity (adenylate kinase release) [5]: enhances chemotherapy-induced cytotoxicity in a cyclin-dependent kinase 4/6 (CDK4/6)-independent manner | effect on chemotherapy-induced cytotoxicity (adenylate kinase release) [6]: enhances chemotherapy-induced cytotoxicity in a cyclin-dependent kinase 4/6 (CDK4/6)-independent manner | chemoprotective effects against doxorubicin, carboplatin, etoposide (cell viability, CellTiter-Glo) ([7]; HS68, viability after 7 days): does not provide protection | chemoprotective effects against doxorubicin, carboplatin, etoposide (cell viability, CellTiter-Glo) ([7]; HS68, viability after 7 days, listed as Staurosporine): does not appear to protect

O=C1NC(=O)c2c1c1c3ccccc3[nH]c1c1[nH]c3cc(Br)ccc3c21 [Compound 2BrIC, 2-bromo-12,13-dihydro-5H-indolo[2,3-a]pyrrolo[3,4]-carbazole-5,6-dione]
incorporation of BrdU into Lin−Kit+Sca1+ cells (MPP) [8]: inhibited; also recorded: clearly reducing proliferation | protection from doxorubicin-, carboplatin- or etoposide-induced DNA damage (gamma-H2AX) [9]: inability | protection from doxorubicin-, carboplatin- or etoposide-induced DNA damage (gamma-H2AX) [1]: attenuated γH2AX staining; also recorded: ability | protection from doxorubicin-, carboplatin- or etoposide-induced DNA damage (gamma-H2AX) [2]: attenuated γH2AX staining | protection from carboplatin-induced DNA damage (gamma-H2AX positive cells) ([2]; then 8 hours carboplatin): ability | protection from doxorubicin-induced DNA damage (gamma-H2AX positive cells) ([2]; then 8 hours doxorubicin): ability | protection from etoposide-induced DNA damage (gamma-H2AX positive cells) ([2]; then 8 hours etoposide): ability | protection from chemotherapy-induced cytotoxicity (cell proliferation assays) [10]: not | protection from doxorubicin-induced cytotoxicity (cell viability, WST-1 assay) ([10]; A2058, absorbance at 450 nm, 7 days recovery): inability | protection of blood cell counts from carboplatin [11]: provides protection of red blood cells and hemoglobin | cell cycle effect [3]: strong, clean and reversible G1-arrest | cell cycle effect [12]: strong, clean and reversible G1-arrest | protection from chemotherapy-induced cytotoxicity (cell proliferation assays) [13]: significant protection | protection from chemotherapy-induced cytotoxicity (cell proliferation assays) ([7]; HS68 (CDK4/6-dependent), pretreatment prior to carboplatin, etoposide or doxorubicin): significant protection

CCC(CO)Nc1nc(NCc2ccccc2)c2ncn(C(C)C)c2n1 (stereo not drawn) [Roscovitine]
protection from chemotherapy-induced cytotoxicity (cell proliferation assays) [10]: failed to protect | chemoprotective effects against doxorubicin (cell viability, CellTiter-Glo) ([10]; A2058, 16 hours pretreatment, DOX 370 nM 8 hours, viability after 7 days): absence of chemoprotective effects | cell cycle effect [14]: did not induce a clean G1 arrest | cell cycle effect [3]: does not induce G1 arrest | cell cycle effect ([3]; listed as roscovitine): did not induce a clean G1 arrest | cell cycle effect [12]: does not induce G1 arrest | cell cycle effect ([12]; listed as roscovitine): did not induce a clean G1 arrest | protection from chemotherapy-induced cytotoxicity (cell proliferation assays) [13]: failed to protect | chemoprotective effects against doxorubicin (cell viability, CellTiter-Glo) ([13]; WM2664, 16 hours pretreatment, DOX 122 nM 8 hours, viability after 7 days): absence of chemoprotective effects | protection from chemotherapy-induced cytotoxicity (cell proliferation assays) [15]: failed to protect | chemoprotective effects against doxorubicin (cell viability, CellTiter-Glo) ([7]; HS68, 16 hours pretreatment, DOX 370 nM 8 hours, viability after 7 days): absence of chemoprotective effects
